Measurements reported in PubChem BioAssay AID2060616 (Molecular Pharmacology Branch, DTP, NCI, 2025).

Tested on: 377384-186-R-J1-PDC complex spheroid viability
Experiment: Anticancer human tumor 377384-186-R-J1-PDC patient-derived pancreatic carcinoma cell line growth inhibition [CLK]
Conditions: for IC50: curve of first compound; for viability, T/C: stronger effect = lower value
Description: A high-throughput screen of multi-cell type tumor spheroids was designed to identify active combinations of […] and targeted small molecules. Complex spheroids include a stromal component modeled by human endothelial cells (HUVEC) and fibroblasts modeled by human mesenchymal stem cells (MSCs). The concentration ranges selected for each drug and investigational agent were based upon clinically achievable concentrations if the clinical Cmax of the agent was known.
Compounds. The drugs and investigational agents: cirtuvivint (SM08502; NSC835563), CC-671 (NSC850746), vemurafenib (NSC761431), tapotoclax (NSC804041), sotorasib (NSC818433), adagrasib (NSC831453), MRTX-1133 (NSC836407), BAY2416964 (NSC825713), copanlisib (NSC816437), inavolisib (NSC800729), abemaciclib (NSC768073), osimertinib (NSC779217), entinostat (NSC756642), eltanexor (KPT-8602, NSC794443), venetoclax (NSC766270), ceralasertib (NSC777638), bortezomib (NSC756655), olaparib (NSC753686), talazoparib (NSC767125), alisertib (NSC759677), peposertib (NSC802822), gemcitabine (NSC613327), 5-fluorouracil (NSC19893), SN-38 (NSC673596), oxaliplatin (NSC266046), paclitaxel (NSC125973), and doxorubicin (NSC123127), were obtained from the National Cancer Institute (NCI) Developmental Therapeutics Program Chemical Repository. The FDA-approved anticancer drug set is available from the Developmental Therapeutics Program at https://dtp.cancer.gov/organization/dscb/obtaining/available plates.htm. […] The stock solutions were prepared in dimethyl sulfoxide (DMSO, Sigma-Aldrich, St. Louis, MO, cat. D2650), except for the platinum complexes which were prepared in saline (Quality Biological, Gaithersburg, MD, cat. 114-055-101), at 800-fold the tested concentration and stored at -70 degrees C prior to their use. All drugs and investigational agents were tested over a range starting from a high concentration at or near the clinical Cmax and decreasing in half-log increments. If the clinical Cmax for an agent had not been determined, the highest concentration tested was 10 microM.
Cell Culture. All cells were maintained in an incubator at 37 degrees C and 5% CO2 with 95% humidity. The PDC lines were cultured according to standard operating procedures established by the NCI PDMR. Briefly, all PDCs were thawed and cultured in Matrigel-coated flasks prepared with a working solution of 1X Ham's F-12 nutrient mix, without supplementation (Invitrogen, Waltham, MA, cat. 11765054), 100 U/mL penicillin-streptomycin (Invitrogen, cat. 15140122), and 2.5% Matrigel (Corning Inc., Corning, NY, cat. 354248) for the first three passages. The 947758-054-R-J2-PDC line was cultured in 6B/Colon 1A media, which includes advanced DMEM/F-12 (Thermo Fisher Scientific, cat. 12634028), 10 mM HEPES (Thermo Fisher Scientific, cat. 15630080), 1X GlutaMAX supplement (Thermo Fisher Scientific, cat. 35050061), 0.1 mg/mL primocin (InvivoGen, cat. ant-pm-2), 10% defined fetal bovine serum, heat inactivated (HyClone Laboratories Inc., cat. SH30070.03HI), 1.25 mM N-Acetyl-L-cysteine (Sigma-Aldrich, cat. A9165), 10 mM nicotinamide (Sigma-Aldrich, cat. N0636), 1X B-27 supplement (Thermo Fisher Scientific, cat. 17504044), 1X N-2 supplement (Thermo Fisher Scientific, cat. 17502048), and 10 microM Y-27632 dihydrochloride (Tocris Bioscience, cat. 1254). The 876862-298-R-J1-PDC was cultured in 6E media, which includes all 6B/Colon 1A media components plus 50% L-WRN conditioned media (ATCC, cat. CRL-3276), 50 ng/mL recombinant human EGF recombinant protein (hEGF; Thermo Fisher Scientific, cat. PHG0311), 10 ng/mL recombinant human fibroblast growth factor 10 (hGFG-10; PeproTech, cat. 100-26), 1 ng/mL recombinant human fibroblast growth factor 2 (hFGF-2; PeproTech, cat. 100-18B), and 1 µM prostaglandin E2 (PGE2; Tocris, cat. 2296). The 227483-062-R1-J1-PDC line was cultured in Panc media, containing all 6E components except hFGF-2, with the addition of 500 nM SB-431542 (Selleckchem, cat. S1067) and 10 nM gastrin (Tocris, cat. 3006). […]
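Also: spheroids exposed to agents for 7 days before reading.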
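For viability, T/C in this document: luminescence signal used as a stand-in for viable cells.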

Q: Which results are given for `COc1cccc2c1C(=O)c1c(O)c3c(c(O)c1C2=O)CC(O)(C(=O)CO)CC3OC1CC(N)C(O)C(C)O1` (centres undefined) + CNC(=O)c1ccc(Nc2nc(OC3CCCC3)c3c(-c4ccc5nc(C)oc5c4)c[nH]c3n2)c(OC)c1?
A: IC50 (second compound 0.0316 µM): < 31.6 nM; IC50 (second compound 0.1 µM): < 31.6 nM; IC50 (second compound 0.316 µM): < 31.6 nM; IC50 (second compound 1 µM): < 31.6 nM; IC50 (second compound 3.16 µM): < 31.6 nM; IC50 (second compound 10 µM): < 31.6 nM; viability, T/C (second compound 0.0316 µM, first compound 0.0316 µM): 10.2%; viability, T/C (second compound 0.0316 µM, first compound 0.1 µM): 4.37%; viability, T/C (second compound 0.0316 µM, first compound 0.316 µM): 1.55%; viability, T/C (second compound 0.0316 µM, first compound 1 µM): 0.38%; viability, T/C (second compound 0.0316 µM, first compound 3.16 µM): 3.07%; viability, T/C (second compound 0.0316 µM, first compound 10 µM): 5.83%; viability, T/C (second compound 0.1 µM, first compound 0.0316 µM): 9.1%; viability, T/C (second compound 0.1 µM, first compound 0.1 µM): 3.91%; viability, T/C (second compound 0.1 µM, first compound 0.316 µM): 1.38%; viability, T/C (second compound 0.1 µM, first compound 1 µM): 0.45%; viability, T/C (second compound 0.1 µM, first compound 3.16 µM): 3.75%; viability, T/C (second compound 0.1 µM, first compound 10 µM): 7.17%; viability, T/C (second compound 0.316 µM, first compound 0.0316 µM): 9.14%; viability, T/C (second compound 0.316 µM, first compound 0.1 µM): 3.32%; viability, T/C (second compound 0.316 µM, first compound 0.316 µM): 1.45%; viability, T/C (second compound 0.316 µM, first compound 1 µM): 0.82%; viability, T/C (second compound 0.316 µM, first compound 3.16 µM): 4.73%; viability, T/C (second compound 0.316 µM, first compound 10 µM): 9.99%; viability, T/C (second compound 1 µM, first compound 0.0316 µM): 7.32%; viability, T/C (second compound 1 µM, first compound 0.1 µM): 2.1%; viability, T/C (second compound 1 µM, first compound 0.316 µM): 0.65%; viability, T/C (second compound 1 µM, first compound 1 µM): 0.52%; viability, T/C (second compound 1 µM, first compound 3.16 µM): 3.63%; viability, T/C (second compound 1 µM, first compound 10 µM): 11.6%; viability, T/C (second compound 3.16 µM, first compound 0.0316 µM): 9.23%; viability, T/C (second compound 3.16 µM, first compound 0.1 µM): 1.54%; viability, T/C (second compound 3.16 µM, first compound 0.316 µM): 0.4%; viability, T/C (second compound 3.16 µM, first compound 1 µM): 0.63%; viability, T/C (second compound 3.16 µM, first compound 3.16 µM): 5.3%; viability, T/C (second compound 3.16 µM, first compound 10 µM): 7.54%; viability, T/C (second compound 10 µM, first compound 0.0316 µM): 7.12%; viability, T/C (second compound 10 µM, first compound 0.1 µM): 2.27%; viability, T/C (second compound 10 µM, first compound 0.316 µM): 0.51%; viability, T/C (second compound 10 µM, first compound 1 µM): 1.07%; viability, T/C (second compound 10 µM, first compound 3.16 µM): 5.51%; viability, T/C (second compound 10 µM, first compound 10 µM): 9.57%

Q: `C=CC(=O)Nc1cc(Nc2nccc(-c3cn(C)c4ccccc34)n2)c(OC)cc1N(C)CCN(C)C` + CN1CCN(c2cc(C(=O)Nc3cc4cc(-c5cnn(C)c5)ccc4cn3)ccn2)CC1 was tested. Which IC50 (second compound 0.0316 µM) did it give?
A: Its IC50 is over 300 nM.

Q: And the IC50 (second compound 0.1 µM)?
A: The IC50 was over 300 nM.

Q: And the IC50 (second compound 0.316 µM)?
A: The IC50 was under 0.949 nM.

Q: What about the IC50 (second compound 1 µM) of the same compound?
A: Its IC50 is under 0.949 nM.

Q: What about the IC50 (second compound 3.16 µM) of the same compound?
A: The IC50 was under 0.949 nM.

Q: And the IC50 (second compound 10 µM)?
A: The IC50 was under 0.949 nM.

Q: And the viability, T/C (second compound 0.0316 µM, first compound 0.000949 µM)?
A: Its viability, T/C is 91.6%.

Q: What about the viability, T/C (second compound 0.0316 µM, first compound 0.003 µM) of the same compound?
A: Its viability, T/C is 100%.

Q: What about the viability, T/C (second compound 0.0316 µM, first compound 0.00949 µM) of the same compound?
A: Its viability, T/C is 90.7%.

Q: What about the viability, T/C (second compound 0.0316 µM, first compound 0.03 µM) of the same compound?
A: Its viability, T/C is 93.6%.

Q: What about the viability, T/C (second compound 0.0316 µM, first compound 0.0949 µM) of the same compound?
A: Its viability, T/C is 79.5%.

Q: What about the viability, T/C (second compound 0.0316 µM, first compound 0.3 µM) of the same compound?
A: Its viability, T/C is 76.3%.

Q: And the viability, T/C (second compound 0.1 µM, first compound 0.000949 µM)?
A: Its viability, T/C is 109%.

Q: And the viability, T/C (second compound 0.1 µM, first compound 0.003 µM)?
A: The viability, T/C was 99.4%.

Q: What about the viability, T/C (second compound 0.1 µM, first compound 0.00949 µM) of the same compound?
A: Its viability, T/C is 83.3%.

Q: And the viability, T/C (second compound 0.1 µM, first compound 0.03 µM)?
A: Its viability, T/C is 91.2%.

Q: What about the viability, T/C (second compound 0.1 µM, first compound 0.0949 µM) of the same compound?
A: Its viability, T/C is 79.2%.

Q: What about the viability, T/C (second compound 0.1 µM, first compound 0.3 µM) of the same compound?
A: Its viability, T/C is 63%.

Q: What about the viability, T/C (second compound 0.316 µM, first compound 0.000949 µM) of the same compound?
A: The viability, T/C was 26.1%.

Q: What about the viability, T/C (second compound 0.316 µM, first compound 0.003 µM) of the same compound?
A: The viability, T/C was 26.6%.

Q: What about the viability, T/C (second compound 0.316 µM, first compound 0.00949 µM) of the same compound?
A: The viability, T/C was 25.1%.

Q: And the viability, T/C (second compound 0.316 µM, first compound 0.03 µM)?
A: Its viability, T/C is 26.5%.

Q: What about the viability, T/C (second compound 0.316 µM, first compound 0.0949 µM) of the same compound?
A: The viability, T/C was 23.7%.

Q: And the viability, T/C (second compound 0.316 µM, first compound 0.3 µM)?
A: Its viability, T/C is 22.2%.

Q: What about the viability, T/C (second compound 1 µM, first compound 0.000949 µM) of the same compound?
A: Its viability, T/C is 1.11%.

Q: And the viability, T/C (second compound 1 µM, first compound 0.003 µM)?
A: Its viability, T/C is 1.28%.

Q: What about the viability, T/C (second compound 1 µM, first compound 0.00949 µM) of the same compound?
A: Its viability, T/C is 2.15%.

Q: And the viability, T/C (second compound 1 µM, first compound 0.03 µM)?
A: Its viability, T/C is 1.55%.

Q: And the viability, T/C (second compound 1 µM, first compound 0.0949 µM)?
A: Its viability, T/C is 1.26%.

Q: What about the viability, T/C (second compound 1 µM, first compound 0.3 µM) of the same compound?
A: The viability, T/C was 1.63%.

Q: And the viability, T/C (second compound 3.16 µM, first compound 0.000949 µM)?
A: Its viability, T/C is 0.48%.

Q: And the viability, T/C (second compound 3.16 µM, first compound 0.003 µM)?
A: Its viability, T/C is 0.71%.

Q: What about the viability, T/C (second compound 3.16 µM, first compound 0.00949 µM) of the same compound?
A: The viability, T/C was 1.03%.

Q: And the viability, T/C (second compound 3.16 µM, first compound 0.03 µM)?
A: Its viability, T/C is 0.37%.

Q: And the viability, T/C (second compound 3.16 µM, first compound 0.0949 µM)?
A: Its viability, T/C is 0.75%.

Q: What about the viability, T/C (second compound 3.16 µM, first compound 0.3 µM) of the same compound?
A: The viability, T/C was 2.51%.

Q: What about the viability, T/C (second compound 10 µM, first compound 0.000949 µM) of the same compound?
A: The viability, T/C was 0.83%.

Q: What about the viability, T/C (second compound 10 µM, first compound 0.003 µM) of the same compound?
A: The viability, T/C was 1.36%.

Q: What about the viability, T/C (second compound 10 µM, first compound 0.00949 µM) of the same compound?
A: The viability, T/C was 1.97%.

Q: What about the viability, T/C (second compound 10 µM, first compound 0.03 µM) of the same compound?
A: Its viability, T/C is 0.66%.

Q: And the viability, T/C (second compound 10 µM, first compound 0.0949 µM)?
A: The viability, T/C was 2.03%.

Q: What about the viability, T/C (second compound 10 µM, first compound 0.3 µM) of the same compound?
A: The viability, T/C was 0.56%.
